Laboratory results published in patent US8969352B2, “Substituted 2-azabicycles and their use as orexin receptor modulators” (Janssen Pharmaceutica NV, priority 2013, dated 2015).
Like-named read-outs stand apart in the source and are kept apart here.

Columns and labels:
[1] = molecular target: human orexin 2 receptor (Homo sapiens (Human), UniProt O43614); test: Human orexin 2 receptor radioligand binding; settings: read-out: hOX2 Ki
Experimental: Human Orexin 2 Receptor Radioligand Binding Studies
(§1) After centrifugation (2K×G, 5 min at 4° C.), the supernatant was aspirated and the pellets frozen and stored at −80° C. […] Each cell pellet from a 15 cm plate was resuspended in 10 mL, stored on ice, and homogenized for 45 sec just prior to addition to the reactions. Competition binding experiments in 96 well polypropylene plates were performed using [^3H]-EMPA (Moraveck Corporation, specific activity=29.6 Ci/mmol), diluted to a 5 nM concentration in PBS (2 nM final concentration). […] The final concentration of DMSO in the reactions is equal to or less than 0.1%. Total and nonspecific binding was determined in the absence and presence of 10 μM almorexant. The total volume of each reaction is 200 μL (20 μL of diluted compounds, 80 μL of [^3H]-EMPA diluted in PBS and 100 μL of the cell suspension). […] The plates were washed 3 times by aspirating 30 ml PBS through the plates. Plates were dried in 55° C. oven for 60 min, scintillation fluid was added, and the radioactivity was counted on a Topcount (Packard).

[2] = molecular target: rat orexin 1 receptor (Rattus norvegicus, UniProt P56718); test: Rat orexin 1 receptor radioligand binding; settings: read-out: rOX1 Ki
Experimental: (§2) Rat and Human Orexin 1 Receptor Radioligand Binding Studies
as §1, with “sec” for “sec just”, “reactions.” for “reactions. Competition binding experiments in 96 well polypropylene plates were performed using [^3H]-EMPA (Moraveck Corporation, specific activity=29.6 Ci/mmol), diluted to a 5 nM concentration in PBS (2 nM final concentration).”, “[^3H]-(1-(5-(2-fluoro-phenyl)-2-methyl-thiazol-4-yl)-1-((S)-2-(5-phenyl-(1,3,4)oxadiazol-2-ylmethyl)-pyrrolidin-1-yl)-methanone)” for “[^3H]-EMPA”

[3] = molecular target: human orexin 1 receptor (Homo sapiens, UniProt O43613); test: Human orexin 1 receptor radioligand binding; settings: read-out: hOX1 Ki
Experimental: as §2
as §1, with “sec” for “sec just”, “reactions.” for “reactions. Competition binding experiments in 96 well polypropylene plates were performed using [^3H]-EMPA (Moraveck Corporation, specific activity=29.6 Ci/mmol), diluted to a 5 nM concentration in PBS (2 nM final concentration).”, “[^3H]-(1-(5-(2-fluoro-phenyl)-2-methyl-thiazol-4-yl)-1-((S)-2-(5-phenyl-(1,3,4)oxadiazol-2-ylmethyl)-pyrrolidin-1-yl)-methanone)” for “[^3H]-EMPA”

[4] = HEK293 stably expressing human orexin 2 receptor, [3H]-EMPA competitive binding, apparent Ki
[5] = HEK293 cells stably expressing rat orexin 1 receptor, competitive radioligand binding, apparent Ki
[6] = CHO cells stably expressing human orexin 1 receptor, competitive radioligand binding, apparent Ki

human orexin 2 receptor, sequence (O43614 whole entry): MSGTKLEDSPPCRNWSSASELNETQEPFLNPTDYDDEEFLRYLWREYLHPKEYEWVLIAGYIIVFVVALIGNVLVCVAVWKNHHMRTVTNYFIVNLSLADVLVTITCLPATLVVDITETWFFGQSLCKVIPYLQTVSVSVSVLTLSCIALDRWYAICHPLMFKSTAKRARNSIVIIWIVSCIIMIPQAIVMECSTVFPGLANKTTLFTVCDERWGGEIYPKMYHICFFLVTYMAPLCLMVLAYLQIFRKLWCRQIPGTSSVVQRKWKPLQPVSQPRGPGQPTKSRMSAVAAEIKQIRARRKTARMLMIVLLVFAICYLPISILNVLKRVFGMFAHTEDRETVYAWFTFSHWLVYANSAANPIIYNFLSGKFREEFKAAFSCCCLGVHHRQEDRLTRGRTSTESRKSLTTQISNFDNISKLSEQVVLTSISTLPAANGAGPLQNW

SMILES	Ki [1, 4] [nM]	Ki [2, 5] [nM]	Ki [3, 6] [nM]	Ki [1] [nM]	Ki [2] [nM]	Ki [3] [nM]
COc1ccc(C(=O)N2CC3CC(Oc4ccc(C(F)(F)F)cn4)C2C3)c(-n2nccn2)c1 (racemic) [Example 13]	> 10000	52	109	–	–	–
O=C(c1cc(F)ccc1-c1ncccn1)N1CC2CC(Oc3ccc(C(F)(F)F)cn3)C1C2 (racemic) [Example 19, (R/S)-(5-fluoro-2-(pyrimidin-2-yl)phenyl)(6-((5-(trifluoromethyl)pyridin-2-yl)oxy)-2-azabicyclo[2.2.1]heptan-2-yl)methanone]	945	18	9	–	–	–
Cc1ccc(C(=O)N2C[C@H]3C[C@@H](Oc4ccc(C(F)(F)F)cn4)[C@@H]2C3)c(-n2nccn2)n1 [Example 29, (6-methyl-2-(2H-1,2,3-triazol-2-yl)pyridin-3-yl)((1S,4R,6R)-6-((5-(trifluoromethyl)pyridin-2-yl)oxy)-2-azabicyclo[2.2.1]heptan-2-yl)methanone]	> 10000	55	47	–	–	–
O=C(c1ncccc1-n1nccn1)N1C[C@H]2C[C@@H](Oc3ccc(C(F)(F)F)cn3)[C@@H]1C2 [Example 30, (3-(2H-1,2,3-triazol-2-yl)pyridin-2-yl)((1S,4R,6R)-6-((5-(trifluoromethyl)pyridin-2-yl)oxy)-2-azabicyclo[2.2.1]heptan-2-yl)methanone]	1700	19	22	–	–	–
Cc1ccc(C(=O)N2C[C@H]3C[C@@H](Oc4ccc(C(F)(F)F)cn4)[C@@H]2C3)c(-n2ccnn2)n1 [Example 34, (6-methyl-2-(1H-1,2,3-triazol-1-yl)pyridin-3-yl)((1S,4R,6R)-6-((5-(trifluoromethyl)pyridin-2-yl)oxy)-2-azabicyclo[2.2.1]heptan-2-yl)methanone]	1100	117	462	–	–	–
CCOc1ccc(C)nc1C(=O)N1C[C@H]2C[C@@H](Oc3ccc(C(F)(F)F)cn3)[C@@H]1C2 [Example 37, (3-ethoxy-6-methylpyridin-2-yl)((1S,4R,6R)-6-((5-(trifluoromethyl)pyridin-2-yl)oxy)-2-azabicyclo[2.2.1]heptan-2-yl)methanone]	1800	170	265	–	–	–
O=C(c1c(F)cccc1-c1ncccn1)N1C[C@H]2C[C@@H](Oc3ccc(C(F)(F)F)cn3)[C@@H]1C2 [Example 38, (2-fluoro-6-(pyrimidin-2-yl)phenyl)((1S,4R,6R)-6-((5-(trifluoromethyl)pyridin-2-yl)oxy)-2-azabicyclo[2.2.1]heptan-2-yl)methanone]	690	8	8	–	–	–
COc1cccc(-c2ccn[nH]2)c1C(=O)N1C[C@H]2C[C@@H](Oc3ccc(C(F)(F)F)cn3)[C@@H]1C2 [Example 39, (2-methoxy-6-(1H-pyrazol-5-yl)phenyl)((1S,4R,6R)-6-((5-(trifluoromethyl)pyridin-2-yl)oxy)-2-azabicyclo[2.2.1]heptan-2-yl)methanone]	108	132	17	–	–	–
COc1cccc(-c2ncccn2)c1C(=O)N1C[C@H]2C[C@@H](Oc3ccc(C(F)(F)F)cn3)[C@@H]1C2 [Example 40, (2-methoxy-6-(pyrimidin-2-yl)phenyl)((1S,4R,6R)-6-((5-(trifluoromethyl)pyridin-2-yl)oxy)-2-azabicyclo[2.2.1]heptan-2-yl)methanone]	340	16	9	–	–	–
O=C(c1cccc2cc[nH]c12)N1C[C@H]2C[C@@H](Oc3ccc(C(F)(F)F)cn3)[C@@H]1C2 [Example 42, (1H-indol-7-yl)((1S,4R,6R)-6-((5-(trifluoromethyl)pyridin-2-yl)oxy)-2-azabicyclo[2.2.1]heptan-2-yl)methanone]	5800	184	175	–	–	–
O=C(c1ccc(F)cc1-n1nccn1)N1C[C@H]2C[C@@H](Oc3ccc(C(F)(F)F)cn3)[C@@H]1C2 [Example 44, (4-fluoro-2-(2H-1,2,3-triazol-2-yl)phenyl)((1S,4R,6R)-6-((5-(trifluoromethyl)pyridin-2-yl)oxy)-2-azabicyclo[2.2.1]heptan-2-yl)methanone]	2200	22	42	–	–	–
O=C(c1cccc(F)c1Br)N1C[C@H]2C[C@@H](Oc3ccc(C(F)(F)F)cn3)[C@@H]1C2 [Example 45, (2-bromo-3-fluorophenyl)((1S,4R,6R)-6-((5-(trifluoromethyl)pyridin-2-yl)oxy)-2-azabicyclo[2.2.1]heptan-2-yl)methanone]	1500	60	55	–	–	–
O=C(c1cccc(F)c1-c1ncccn1)N1C[C@H]2C[C@@H](Oc3ccc(Br)cn3)[C@@H]1C2 [Example 48, ((1S,4R,6R)-6-((5-bromopyridin-2-yl)oxy)-2-azabicyclo[2.2.1]heptan-2-yl)(3-fluoro-2-(pyrimidin-2-yl)phenyl)methanone]	972	3	6	–	–	–
O=C(c1ccccc1-n1nccn1)N1C[C@H]2C[C@@H](Oc3ccc(Br)cn3)[C@@H]1C2 [Example 49, (2-(2H-1,2,3-triazol-2-yl)phenyl)((1S,4R,6R)-6-((5-bromopyridin-2-yl)oxy)-2-azabicyclo[2.2.1]heptan-2-yl)methanone]	507	6	6	–	–	–
Cc1ccc(-n2nccn2)c(C(=O)N2C[C@H]3C[C@@H](Oc4ccc(Br)cn4)[C@@H]2C3)n1 [Example 50, ((1S,4R,6R)-6-((5-bromopyridin-2-yl)oxy)-2-azabicyclo[2.2.1]heptan-2-yl)(6-methyl-3-(2H-1,2,3-triazol-2-yl)pyridin-2-yl)methanone]	670	7	9	–	–	–
Cc1ccc(-n2nccn2)c(C(=O)N2C[C@H]3C[C@@H](Nc4ccc(C(F)(F)F)cn4)[C@@H]2C3)n1 [Example 54, (6-methyl-3-(2H-1,2,3-triazol-2-yl)pyridin-2-yl)((1S,4S,6R)-6-((5-(trifluoromethyl)pyridin-2-yl)amino)-2-azabicyclo[2.2.1]heptan-2-yl)methanone]	–	–	–	132	5	6
Cc1cccc(C(=O)N2C[C@H]3C[C@@H](Nc4ccc(C(F)(F)F)cn4)[C@@H]2C3)c1-n1nccn1 [Example 55, (3-methyl-2-(2H-1,2,3-triazol-2-yl)phenyl)((1S,4S,6R)-6-((5-(trifluoromethyl)pyridin-2-yl)amino)-2-azabicyclo[2.2.1]heptan-2-yl)methanone]	46	3	3	–	–	–
CCOc1ccc2cccnc2c1C(=O)N1C[C@H]2C[C@@H](Nc3ccc(C(F)(F)F)cn3)[C@@H]1C2 [Example 56, (7-ethoxyquinolin-8-yl)((1S,4S,6R)-6-((5-(trifluoromethyl)pyridin-2-yl)amino)-2-azabicyclo[2.2.1]heptan-2-yl)methanone]	192	8	10	–	–	–
O=C(c1cc(F)ccc1-n1nccn1)N1C[C@H]2C[C@@H](Nc3ccc(C(F)(F)F)cn3)[C@@H]1C2 [Example 57, (5-fluoro-2-(2H-1,2,3-triazol-2-yl)phenyl)((1S,4S,6R)-6-((5-(trifluoromethyl)pyridin-2-yl)amino)-2-azabicyclo[2.2.1]heptan-2-yl)methanone]	252	6	5	–	–	–
O=C(c1cc(F)ccc1-c1ncccn1)N1C[C@H]2C[C@@H](Nc3ccc(C(F)(F)F)cn3)[C@@H]1C2 [Example 58, (5-fluoro-2-(pyrimidin-2-yl)phenyl)((1S,4S,6R)-6-((5-(trifluoromethyl)pyridin-2-yl)amino)-2-azabicyclo[2.2.1]heptan-2-yl)methanone]	181	4	2	–	–	–
O=C(c1ccccc1-n1nccn1)N1C[C@H]2C[C@@H](Nc3cnc(C(F)(F)F)cn3)[C@@H]1C2 [Example 59, (2-(2H-1,2,3-triazol-2-yl)phenyl)((1S,4S,6R)-6-((5-(trifluoromethyl)pyrazin-2-yl)amino)-2-azabicyclo[2.2.1]heptan-2-yl)methanone]	213	6	9	–	–	–
